Assay results: ChEMBL document CHEMBL4480435, “The impact of binding site waters on the activity/selectivity trade-off of Janus kinase 2 (JAK2) inhibitors” (Bioorg Med Chem, 2019)

What was measured:
[1] = target: T1, Tyrosine-protein kinase JAK2 (Homo sapiens, UniProt O60674); assay: Inhibition of JAK2 (unknown origin) after 1 hr FRET-based Z'-Lyte assay
[2] = target: T2, Tyrosine-protein kinase JAK1 (Homo sapiens, UniProt P23458); assay: Inhibition of JAK1 (unknown origin) at 10 uM after 1 hr by FRET-based Z'-Lyte assay
T2 sequence (P23458 whole entry): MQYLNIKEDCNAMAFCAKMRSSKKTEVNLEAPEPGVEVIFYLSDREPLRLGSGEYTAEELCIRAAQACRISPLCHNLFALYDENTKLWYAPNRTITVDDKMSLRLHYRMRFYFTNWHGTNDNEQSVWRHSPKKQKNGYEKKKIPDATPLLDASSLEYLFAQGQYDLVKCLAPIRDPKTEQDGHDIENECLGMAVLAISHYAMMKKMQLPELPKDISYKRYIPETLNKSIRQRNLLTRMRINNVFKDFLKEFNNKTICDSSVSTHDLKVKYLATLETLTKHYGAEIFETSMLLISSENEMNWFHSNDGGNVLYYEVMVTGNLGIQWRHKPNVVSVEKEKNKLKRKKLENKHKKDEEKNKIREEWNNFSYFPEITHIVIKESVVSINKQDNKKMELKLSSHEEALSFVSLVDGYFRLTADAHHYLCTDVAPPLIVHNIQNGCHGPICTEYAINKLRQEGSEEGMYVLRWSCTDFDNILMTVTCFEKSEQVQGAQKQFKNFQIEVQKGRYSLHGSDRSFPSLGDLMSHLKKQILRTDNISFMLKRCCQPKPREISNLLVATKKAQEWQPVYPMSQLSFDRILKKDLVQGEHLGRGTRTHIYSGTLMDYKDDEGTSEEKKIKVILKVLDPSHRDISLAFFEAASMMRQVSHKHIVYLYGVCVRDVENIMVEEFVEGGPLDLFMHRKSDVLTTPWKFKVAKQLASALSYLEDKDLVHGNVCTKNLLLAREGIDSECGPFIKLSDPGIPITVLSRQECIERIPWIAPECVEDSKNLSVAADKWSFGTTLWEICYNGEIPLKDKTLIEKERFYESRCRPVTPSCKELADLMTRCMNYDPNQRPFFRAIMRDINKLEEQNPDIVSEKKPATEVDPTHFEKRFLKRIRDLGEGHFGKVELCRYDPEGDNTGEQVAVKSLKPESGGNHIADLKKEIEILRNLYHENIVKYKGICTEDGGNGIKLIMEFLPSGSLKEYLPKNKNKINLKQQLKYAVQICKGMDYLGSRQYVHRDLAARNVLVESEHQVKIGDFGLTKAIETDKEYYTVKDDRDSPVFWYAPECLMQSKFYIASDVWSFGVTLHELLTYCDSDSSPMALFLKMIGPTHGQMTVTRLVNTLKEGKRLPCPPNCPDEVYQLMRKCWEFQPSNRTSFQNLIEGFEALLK

[3] = target: T2, Tyrosine-protein kinase JAK1; assay: Inhibition of JAK1 (unknown origin) after 1 hr by FRET-based Z'-Lyte assay
Homo sapiens = species on record: Homo sapiens; assay: Selectivity ratio of IC50 for JAK1 (unknown origin) to IC50 for JAK2 (unknown origin)
[4] = target: T2, Tyrosine-protein kinase JAK1; assay: Inhibition of JAK1 (unknown origin) at 20 uM after 1 hr by FRET-based Z'-Lyte assay
[5] = target: T2, Tyrosine-protein kinase JAK1
Description: Inhibition of human recombinant JAK1 (852 to 1142 residues) by Z-Lyte assay

[6] = target: T1, Tyrosine-protein kinase JAK2
Description: Inhibition of human recombinant JAK2 (808 to 1132 residues) by Z-Lyte assay

T1 sequence (O60674 whole entry): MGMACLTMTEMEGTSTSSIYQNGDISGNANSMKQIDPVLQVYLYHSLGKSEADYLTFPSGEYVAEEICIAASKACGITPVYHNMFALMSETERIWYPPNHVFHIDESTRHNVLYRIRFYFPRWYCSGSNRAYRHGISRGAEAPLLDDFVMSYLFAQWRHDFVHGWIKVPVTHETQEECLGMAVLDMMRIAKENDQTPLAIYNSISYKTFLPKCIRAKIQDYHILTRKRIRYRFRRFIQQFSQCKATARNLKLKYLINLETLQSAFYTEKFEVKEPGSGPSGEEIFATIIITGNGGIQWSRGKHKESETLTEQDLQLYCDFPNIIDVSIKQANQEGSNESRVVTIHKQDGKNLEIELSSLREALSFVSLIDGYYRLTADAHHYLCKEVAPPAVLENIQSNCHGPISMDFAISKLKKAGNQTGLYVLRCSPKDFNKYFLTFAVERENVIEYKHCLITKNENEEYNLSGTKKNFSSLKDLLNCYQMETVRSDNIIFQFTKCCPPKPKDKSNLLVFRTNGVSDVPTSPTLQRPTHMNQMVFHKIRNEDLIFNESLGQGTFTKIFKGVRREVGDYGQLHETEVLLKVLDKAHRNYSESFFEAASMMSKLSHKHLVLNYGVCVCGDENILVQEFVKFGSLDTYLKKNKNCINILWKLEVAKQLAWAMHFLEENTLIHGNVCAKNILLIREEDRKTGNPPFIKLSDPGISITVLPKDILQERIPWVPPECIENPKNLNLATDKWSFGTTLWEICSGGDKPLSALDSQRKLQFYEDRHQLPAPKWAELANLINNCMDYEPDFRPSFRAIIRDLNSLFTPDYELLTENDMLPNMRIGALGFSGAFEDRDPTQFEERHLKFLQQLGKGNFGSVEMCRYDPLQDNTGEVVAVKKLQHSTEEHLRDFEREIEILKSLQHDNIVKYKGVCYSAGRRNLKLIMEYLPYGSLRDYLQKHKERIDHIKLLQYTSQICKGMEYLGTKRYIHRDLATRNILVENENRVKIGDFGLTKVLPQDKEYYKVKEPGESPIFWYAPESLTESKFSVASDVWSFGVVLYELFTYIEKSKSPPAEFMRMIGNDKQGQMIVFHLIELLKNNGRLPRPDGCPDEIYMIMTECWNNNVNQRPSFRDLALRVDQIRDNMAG

SMILES	IC50 [1]	inhibition [2]	IC50 [3]	Ratio IC50 (Homo sapiens)	inhibition [4]	IC50 [5]	IC50 [6]
Nc1n[nH]c2ccc(NC(=O)c3c(Cl)cccc3-n3cnnn3)cc12	76.6 µM	10%					
Nc1n[nH]c2ccc(NC(=O)c3cccc(Cl)c3Cl)cc12	0.411 µM		1.51 µM	3.67			
c1ccc(-n2cnnn2)c(-c2cc(-c3ccc4[nH]ncc4c3)on2)c1	2 µM		3.3 µM	1.65			
Nc1n[nH]c2ccc(C(=O)Nc3c(Cl)cccc3Cl)cc12	0.028 µM		0.46 µM	16			
O=C(Nc1ccc2[nH]ncc2c1)c1ccccc1Cl	0.453 µM		8.53 µM	18.8			
Nc1n[nH]c2ccc(-c3cnc(-c4ccccc4-n4cnnn4)s3)cc12	3.25 µM		9.29 µM	2.85			
c1ccc(-n2cnnn2)c(-c2nc(-c3ccc4[nH]ncc4c3)cs2)c1	1.54 µM		7.94 µM	5			
Nc1n[nH]c2ccc(NC(=O)c3ccccc3-n3cnnn3)cc12	6.34 µM		33.9 µM	5.3			
O=C(Nc1ccc2[nH]ncc2c1)c1c(Cl)cccc1-n1cnnn1	0.82 µM		11.5 µM	14			
Nc1n[nH]c2ccc(C(=O)Nc3ccccc3)cc12	3.23 µM		10.8 µM	3.78			
Clc1cccc(-n2cnnn2)c1-c1nc(-c2ccc3[nH]ncc3c2)cs1	1.68 µM		21.6 µM	12.8			
O=C(Nc1ccc2[nH]ncc2c1)c1ccccc1					17%		
CNS(=O)(=O)C[C@H]1CC[C@H](N(C)c2ncnc3[nH]ccc23)CC1 [OCLACITINIB]						0.01 µM	0.018 µM
Nc1n[nH]c2ccc(NC(=O)c3cccc(Cl)c3)cc12	0.583 µM		0.943 µM	1.63			
Nc1n[nH]c2ccc(NC(=O)c3ccccc3Cl)cc12	0.101 µM		1.82 µM	18			
Nc1n[nH]c2ccc(NC(=O)c3ccccc3)cc12	2.78 µM		10.5 µM	3.78			
O=C(Nc1ccc2[nH]ncc2c1)c1ccccc1Cn1cnnn1	3.54 µM		9.67 µM	2.7			
O=C(Nc1ccc2[nH]ncc2c1)c1cccc(-n2cnnn2)c1	0.718 µM		0.764 µM	1			
Nc1n[nH]c2ccc(C(=O)Nc3cc(Cl)ccc3Cl)cc12	0.038 µM		0.414 µM	11			
O=C(Nc1ccc2[nH]ncc2c1)c1ccccc1-n1cnnn1	2.38 µM		33 µM	14			
O=C(Nc1ccc2[nH]ncc2c1)c1cccc(Cn2cnnn2)c1					20%		
Nc1n[nH]c2ccc(NC(=O)c3cc(Cl)ccc3Cl)cc12	0.023 µM		0.151 µM	6.57			
CCNc1ccccc1C(=O)Nc1ccc2[nH]ncc2c1	3.96 µM		24.1 µM	6			
Nc1n[nH]c2ccc(C(=O)Nc3ccccc3Cl)cc12	0.126 µM		2.27 µM	18			
c1ccc(-n2cnnn2)c(-c2cn(-c3ccc4[nH]ncc4c3)nn2)c1	9.53 µM		8.8 µM	0.9			
CCNc1ccccc1C(=O)Nc1ccc2[nH]nc(N)c2c1	1.97 µM		22 µM	11			
